Measured values as given in ChEMBL document CHEMBL1201862, “PubChem BioAssay data set” (2004).
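How tested: cells in 96-well plates exposed to compound for 48 hours at five concentrations. The concentration for 50% growth inhibition is given as GI50.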 Activity calls are given as the source filed them. No stated cut-off is given here; in the data, active = GI50 up to about 1.1 µM and inactive = higher.

Columns and labels:
Assay in all cases: NCI anticancer screen, dose series, 48 h
[1] = tested on: OVCAR-4
[2] = tested on: Hs-578T
[3] = tested on: COLO 205
[4] = tested on: LOX IMVI
[5] = tested on: TK-10
[6] = tested on: OVCAR-3
[7] = tested on: KM12
[8] = tested on: HT-29
[9] = tested on: HL-60
[10] = tested on: 786-0
[11] = tested on: RXF 393
[12] = tested on: SR
[13] = tested on: HOP-62
[14] = tested on: IGROV-1
[15] = tested on: SN12C
[16] = tested on: T47D
[17] = tested on: SF-268
[18] = tested on: EKVX
[19] = tested on: PC-3
[20] = tested on: SF-295
[21] = tested on: MDA-MB-231
[22] = tested on: HOP-92
[23] = tested on: NCI-H460
[24] = tested on: NCI-H226
[25] = tested on: M14
[26] = tested on: CCRF-CEM
[27] = tested on: SNB-19
[28] = tested on: SK-MEL-28
[29] = tested on: SK-MEL-2
[30] = tested on: SK-MEL-5
[31] = tested on: U-251
[32] = tested on: MDA-N
[33] = tested on: K562
[34] = tested on: MCF7
[35] = tested on: MDA-MB-435
[36] = tested on: NCI-H23
[37] = tested on: NCI/ADR-RES
[38] = tested on: UO-31
[39] = tested on: CAKI-1
[40] = tested on: A549
[41] = tested on: UACC-62
[42] = tested on: HCT-15
[43] = tested on: SF-539
[44] = tested on: RPMI-8226
[45] = tested on: OVCAR-5
[46] = tested on: SNB-75
[47] = tested on: Malme-3M
[48] = tested on: MOLT-4
[49] = tested on: HCT-116
[50] = tested on: OVCAR-8
[51] = tested on: ACHN
[52] = tested on: DU-145
[53] = tested on: NCI-H522
[54] = tested on: SW-620
[55] = tested on: UACC-257
[56] = tested on: HCC 2998
[57] = tested on: A498
[58] = tested on: SK-OV-3

COc1ccc2nc(/C(N)=C\C#N)ccc2c1
GI50 [1]: 86.7 µM (inactive)
GI50 [2]: 1.01 µM (active)
GI50 [3]: 56 µM (inactive)
GI50 [4]: 36 µM (inactive)
GI50 [5]: 59.2 µM (inactive)
GI50 [6]: 31.6 µM (inactive)
GI50 [7]: 52.1 µM (inactive)
GI50 [8]: 47.6 µM (inactive)
GI50 [9]: 18 µM (inactive)
GI50 [10]: 34.7 µM (inactive)
GI50 [11]: 1.89 µM (inactive)
GI50 [12]: 22.3 µM (inactive)
GI50 [13]: > 100 µM (inactive)
GI50 [14]: 29.9 µM (inactive)
GI50 [15]: 57.5 µM (inactive)
GI50 [16]: 30.9 µM (inactive)
GI50 [17]: 33.7 µM (inactive)
GI50 [18]: 0.15 µM (active)
GI50 [19]: 43.7 µM (inactive)
GI50 [20]: 93.8 µM (inactive)
GI50 [21]: > 100 µM (inactive)
GI50 [22]: 91.8 µM (inactive)
GI50 [23]: > 100 µM (inactive)
GI50 [24]: > 100 µM (inactive)
GI50 [25]: 42.1 µM (inactive)
GI50 [26]: 40.3 µM (inactive)
GI50 [27]: > 100 µM (inactive)
GI50 [28]: > 100 µM (inactive)
GI50 [29]: 49.5 µM (inactive)
GI50 [30]: 11.9 µM (inactive)
GI50 [31]: 60.5 µM (inactive)
GI50 [32]: 45.3 µM (inactive)
GI50 [33]: 31.6 µM (inactive)
GI50 [34]: > 100 µM (inactive)
GI50 [35]: 32.6 µM (inactive)
GI50 [36]: 90.2 µM (inactive)
GI50 [37]: 30.8 µM (inactive)
GI50 [38]: 32.8 µM (inactive)
GI50 [39]: > 100 µM (inactive)
GI50 [40]: 47.2 µM (inactive)
GI50 [41]: 6.58 µM (inactive)
GI50 [42]: > 100 µM
GI50 [43]: 46 µM (inactive)
GI50 [44]: 37.5 µM (inactive)
GI50 [45]: > 100 µM (inactive)
GI50 [46]: > 100 µM (inactive)
GI50 [47]: > 100 µM (inactive)
GI50 [48]: 23.9 µM (inactive)
GI50 [49]: 20.3 µM (inactive)
GI50 [50]: 36.8 µM (inactive)
GI50 [51]: 75.2 µM (inactive)
GI50 [52]: 92.5 µM (inactive)
GI50 [53]: 37 µM (inactive)
GI50 [54]: > 100 µM (inactive)
GI50 [55]: > 100 µM (inactive)

NC(=O)CC(N)C(=O)NC(Cc1ccccc1)C(=O)NC(Cc1ccccc1)NC(=O)C(Cc1c[nH]c2ccccc12)C(=O)O (centres undefined)
GI50 [1]: > 100 µM (inactive)
GI50 [2]: > 100 µM (inactive)
GI50 [3]: > 100 µM (inactive)
GI50 [4]: > 100 µM (inactive)
GI50 [5]: > 100 µM (inactive)
GI50 [6]: > 100 µM (inactive)
GI50 [7]: > 100 µM (inactive)
GI50 [8]: > 100 µM (inactive)
GI50 [10]: > 100 µM (inactive)
GI50 [11]: > 100 µM (inactive)
GI50 [13]: > 100 µM (inactive)
GI50 [14]: > 100 µM (inactive)
GI50 [15]: > 100 µM (inactive)
GI50 [16]: > 100 µM (inactive)
GI50 [17]: > 100 µM (inactive)
GI50 [18]: > 100 µM (inactive)
GI50 [19]: > 100 µM (inactive)
GI50 [20]: > 100 µM (inactive)
GI50 [21]: > 100 µM (inactive)
GI50 [56]: > 100 µM (inactive)
GI50 [22]: > 100 µM (inactive)
GI50 [23]: > 100 µM (inactive)
GI50 [24]: > 100 µM (inactive)
GI50 [25]: > 100 µM (inactive)
GI50 [26]: > 100 µM (inactive)
GI50 [27]: > 100 µM (inactive)
GI50 [28]: > 100 µM (inactive)
GI50 [29]: > 100 µM (inactive)
GI50 [30]: 49.4 µM (inactive)
GI50 [31]: > 100 µM (inactive)
GI50 [33]: > 100 µM (inactive)
GI50 [34]: > 100 µM (inactive)
GI50 [35]: > 100 µM (inactive)
GI50 [36]: > 100 µM (inactive)
GI50 [37]: > 100 µM (inactive)
GI50 [38]: > 100 µM (inactive)
GI50 [39]: > 100 µM (inactive)
GI50 [40]: > 100 µM (inactive)
GI50 [41]: > 100 µM (inactive)
GI50 [42]: > 100 µM
GI50 [57]: > 100 µM (inactive)
GI50 [43]: > 100 µM (inactive)
GI50 [44]: > 100 µM (inactive)
GI50 [45]: > 100 µM (inactive)
GI50 [46]: 71.8 µM (inactive)
GI50 [47]: > 100 µM (inactive)
GI50 [48]: > 100 µM (inactive)
GI50 [58]: > 100 µM (inactive)
GI50 [49]: > 100 µM (inactive)
GI50 [50]: > 100 µM (inactive)
GI50 [51]: > 100 µM (inactive)
GI50 [52]: > 100 µM (inactive)
GI50 [53]: > 100 µM (inactive)
GI50 [54]: > 100 µM (inactive)
GI50 [55]: > 100 µM (inactive)

O=c1c(Nc2ccccc2)cn(CCOc2ccc(Cl)cc2)c(=O)n1CCOc1ccc(Cl)cc1
GI50 [1]: 26.7 µM (inactive)
GI50 [2]: 60 µM (inactive)
GI50 [3]: > 100 µM (inactive)
GI50 [4]: > 100 µM (inactive)
GI50 [7]: > 100 µM (inactive)
GI50 [10]: 28.1 µM (inactive)
GI50 [11]: 36.4 µM (inactive)
GI50 [12]: 96.2 µM (inactive)
GI50 [14]: > 100 µM (inactive)
GI50 [15]: > 100 µM (inactive)
GI50 [17]: 89.9 µM (inactive)
GI50 [18]: 55.7 µM (inactive)
GI50 [19]: 41.1 µM (inactive)
GI50 [20]: > 100 µM (inactive)
GI50 [56]: 22.2 µM (inactive)
GI50 [23]: > 100 µM (inactive)
GI50 [25]: 60.3 µM (inactive)
GI50 [26]: 64 µM (inactive)
GI50 [27]: > 100 µM (inactive)
GI50 [28]: > 100 µM (inactive)
GI50 [30]: 75.2 µM (inactive)
GI50 [31]: > 100 µM (inactive)
GI50 [32]: > 100 µM (inactive)
GI50 [33]: > 100 µM (inactive)
GI50 [35]: 39.1 µM (inactive)
GI50 [36]: > 100 µM (inactive)
GI50 [38]: 51.9 µM (inactive)
GI50 [39]: > 100 µM (inactive)
GI50 [40]: > 100 µM (inactive)
GI50 [41]: > 100 µM (inactive)
GI50 [42]: > 100 µM
GI50 [57]: > 100 µM (inactive)
GI50 [44]: > 100 µM (inactive)
GI50 [48]: > 100 µM (inactive)
GI50 [49]: > 100 µM (inactive)
GI50 [51]: > 100 µM (inactive)
GI50 [52]: 75.2 µM (inactive)
GI50 [54]: > 100 µM (inactive)
GI50 [55]: > 100 µM (inactive)
